Experimental data taken from patent US20100081632A1, “High-content and high throughput assays for identification of lipid-regulating pathways, and novel therapeutic agents for lipid disorders” (Odyssey Thera, Inc., priority 2008, published 2010).

Key:
[1] = test system: PCSK9/LDLR complex; assay: PCSK9/LDLR protein complementation assay (PCA) in transfected HEK293 cells; format: cell-based, human
Method: In one of the embodiments of the invention, the cell-based assay consists of transfected cDNAs encoding full-length PCSK9 and LDL receptor, each sequence linked in-frame to rationally designed fragments of a variant of green fluorescent protein. These two plasmid constructs were co-expressed in human HEK cells plated in 384-well poly-lysine coated plates. After 24-48 hours of incubation, drugs (or vehicle controls) were added to the media, and the existence and localization of PCSK9/LDL receptor complexes was quantified on an Opera automated confocal fluorescence microscopy platform (Perkin Elmer). Images were subjected to automated image analysis, and results quantified and subjected to statistical analysis.
HEK 293T cells were seeded in normal growth media containing DMEM and 10% FBS at 1.5×10^4 in PDL-coated 96-well plates 24 hours prior to transfection. Cells were transfected with 50 ng of each construct DNA per well with Fugene 6, using conditions recommended by the manufacturer. Cells were allowed to express the construct pairs for 24- or 48 h, then the cells were simultaneously fixed and stained with either a 1:300 dilution of Hoescht 33342 (Molecular Probes, Eugene, Oreg.) or a 1:1000 dilution of Draq5 (Biostatus, Shepshed, Leicestershire, U.K.) in 4% formaldehyde for 15 minutes at room temperature. The cells were washed to remove fixative, and overlaid with a small volume of Hank's Buffered Salt Solution. Images were acquired on a Discovery-1 (Molecular Devices) epifluorescence microscope using the 20× objective, and DAPI and FITC filter sets. (with excitation at 350 and 488 nm wave lengths) or on an Opera (Perkin Elmer) confocal microscope using the 20× water objective with the following excitation and emission settings: Ex 488 nm/Em 535 nm (YFP) and Ex 635 nm/Em 640 nm (Draq5).
To test for in vitro PCSK9 function and activity, we developed a protein complementation assay (PCA) with PCSK9-IFP2 and the LDL-IFP1 receptor (PCSK9/LDLR). Expression of wild type PCSK9-IFP2 in transfected HEK293 cells was confirmed by Western blot using an antibody against YFP (FIG. 2). Cotranfection of HEK cells with increasing ratios of PCSK9-IFP2 and LDLR-IFP1 DNA constructs results in increased PCA signal (FIG. 3) but not when each construct is expressed alone. The intracellular localization of the wild-type PCSK9-IFP2/LDLR-IFP1 PCA interaction is similar to the known localization of wild type PCSK9 in the endoplasmic reticulum (ER) and post-ER compartments in various cell types (20, 21). The PCA signal for the PCSK9-IFP2/LDLR-IFP1 pair appears to be localized to multiple intracellular trafficking sites including the ER, endosomes and the cell surface.
In order to test the viability of using the PCSK9-IFP2/LDLR-IFP1 PCA as a drug discovery tool, we tested a drug plate containing 50 known drugs at 3 doses in the assay (Table 10) as well as several protein kinase inhibitors (representative compounds are depicted in Table 11). […] We observed the following effects of known compounds on the PCSK9/LDLR complex:
A collection of small molecular weight compounds was screened. […] To expand on this observation, we characterized the effects of a larger panel of kinase inhibitors on the PCSK9/LDLr complex. 47 compounds representing a broad range of known receptor tyrosine and serine-threonine kinase inhibitors were assessed (table 2). A subset was identified that had inhibitory effects on the PCSK9/LDLr complex (degree of assay inhibition relative to control is indicated by “% control”, Table 2).

[2] = test system: HepG2 cells; assay: LDL uptake in HepG2 cells (human LDL conjugated to DyLight 549); format: cell-based; conditions: for x-fold increase (hepatic LDL uptake): HepG2
From the text: The assay uses human LDL conjugated to DyLight™ 549 as a fluorescent probe for detection of LDL uptake into HepG2 cells.
We assessED whether compounds that inhibit the PCSK9/LDLr assay would have activity on LDL uptake and metabolism in a relevant cell type. PCSK9 is thought to be a negative regulator of LDLr. Thus, we predicted that compounds inhibiting the PCSK9 PCA signal would increase LDL receptor expression and LDL uptake. An assay using human LDL conjugated to DyLight™ 549 as a fluorescent probe for detection of LDL uptake into cultured human hepatocytes. A separate assay, using an LDL receptor-specific polyclonal antibody and a DyLight™ 488-conjugated secondary antibody, was also performed to localize LDL receptors
Quantitation of the increased LDL uptake of these and other kinase inhibitors targeting Akt, mTOR, p38, GSK3 and VEGF is shown in Table 4.

CC[n+]1c(/C=C/N(C)c2ccccc2)n(-c2ccccc2)c2ccc(-c3nc4ccccc4s3)cc21 [Akt Inhibitor IV, 5-(2-Benzothiazolyl)-3-ethyl-2-[2-(methylphenylamino)ethenyl]-1-phenyl-1H-benzimidazolium iodide]
% Control (PCSK9/LDLr PCA) ([1]; dose 1 μM): 65% | % Control (PCSK9/LDLr PCA) ([1]; dose 3 μM): 40% | % Control (PCSK9/LDLr PCA) ([1]; dose 10 μM): 56%

CCN(CC)CCCCN1c2ccccc2Oc2ccc(Cl)cc21.Cl [Akt Inhibitor X, 10-(4′-(N-diethylamino)butyl)-2-chlorophenoxazine, HCl]
x-fold increase (LDL uptake in Hepg2 cells) ([2]; dose 1 μM): 1.4 x-fold | x-fold increase (hepatic LDL uptake) ([2]; dose 1 µM): 1.4 x-fold | x-fold increase (LDL uptake in Hepg2 cells) ([2]; dose 3 μM): 1.7 x-fold | x-fold increase (hepatic LDL uptake) ([2]; dose 3 µM): 1.7 x-fold

CN(C)CCC=C1c2ccccc2CCc2ccccc21 [Amitryptyline]
% Control (PCSK9/LDLr PCA) ([1]; dose 100 μM): 48%

C=C1CC[C@@H]2[C@](C)(CO)CCC[C@@]2(C)[C@@H]1CCC1=CCOC1=O [Andrograpanin]
% Control (PCSK9/LDLr PCA) ([1]; dose 100 μM): 40%

C=C1CC[C@@H]2[C@](C)(CO)[C@H](O)CC[C@@]2(C)[C@@H]1C/C=C1/C(=O)OC[C@H]1O [Andrographolide]
% Control (PCSK9/LDLr PCA) ([1]; dose 100 μM): 43%

CN(C)CCCN1c2ccccc2CCc2ccc(Cl)cc21 [Clomipramine]
% Control (PCSK9/LDLr PCA) ([1]; dose 50 μM): 46%

C=C1[C@@H](C)[C@H]2[C@H](Cc3ccccc3)NC(=O)[C@]23OC(=O)/C=C/[C@H](O)CCC[C@@H](C)C/C=C/[C@H]3[C@@H]1O [Cytochalasin B]
% Control (PCSK9/LDLr PCA) ([1]; dose 2 μM): 53%

COc1cc2ncnc(Nc3ccc(F)c(Cl)c3)c2cc1OCCCN1CCOCC1 [Gefitinib]
% Control (PCSK9/LDLr PCA) ([1]; dose 100 μM): 53%

CN(C)CCCN1c2ccccc2CCc2ccccc21 [Imipramine]
% Control (PCSK9/LDLr PCA) ([1]; dose 150 μM): 46%

CCc1cc(-c2oncc2-c2ccc(OC)cc2)c(O)cc1OC [KRIBB3]
x-fold increase (LDL uptake in Hepg2 cells) ([2]; dose 1 μM): 1.3 x-fold | x-fold increase (hepatic LDL uptake) ([2]; dose 1 µM): 1.3 x-fold | x-fold increase (LDL uptake in Hepg2 cells) ([2]; dose 3 μM): 1.6 x-fold | x-fold increase (hepatic LDL uptake) ([2]; dose 3 µM): 1.6 x-fold

O=c1cc(N2CCNCC2)oc2c(-c3ccccc3)cccc12 [LY 303511]
x-fold increase (LDL uptake in Hepg2 cells) ([2]; dose 3 μM): 1.4 x-fold | x-fold increase (LDL uptake in Hepg2 cells) ([2]; dose 30 μM): 2.1 x-fold | x-fold increase (hepatic LDL uptake) ([2]; dose 30 µM): 2.1 x-fold | x-fold increase (hepatic LDL uptake) ([2]; dose 3 µM): 1.4 x-fold

Cc1c(OCC(F)(F)F)ccnc1C[S+]([O-])c1nc2ccccc2[nH]1 (centres unmarked) [Lanzoprazole]
effect on formation of PCSK9/LDLR complexes / PCA signal (in words) [1]: inhibit the formation of PCSK9/LDLR complexes | % Control (PCSK9/LDLr PCA) ([1]; dose 100 μM): 53%

CS(=O)(=O)CCNCc1ccc(-c2ccc3ncnc(Nc4ccc(OCc5cccc(F)c5)c(Cl)c4)c3c2)o1 [Lapatinib]
effect on LDL uptake (in words) ([2]; HepG2, 10 μM): dramatic increase in LDL uptake | x-fold increase (LDL uptake in Hepg2 cells) ([2]; dose 10 μM): 1.8 x-fold | x-fold increase (hepatic LDL uptake) ([2]; dose 10 µM): 1.8 x-fold | x-fold increase (LDL uptake in Hepg2 cells) ([2]; dose 30 μM): 1.9 x-fold | x-fold increase (hepatic LDL uptake) ([2]; dose 30 µM): 1.9 x-fold

O=NN(CCCl)C(=O)NC1CCCCC1 [Lomustine]
% Control (PCSK9/LDLr PCA) ([1]; dose 50 μM): 50% | % Control (PCSK9/LDLr PCA) ([1]; dose 150 μM): 54%

CCOC(=O)N1CCC(=C2c3ccc(Cl)cc3CCc3cccnc32)CC1 [Loratidine]
% Control (PCSK9/LDLr PCA) ([1]; dose 30 μM): 59%

Cc1cn(-c2cc(NC(=O)c3ccc(C)c(Nc4nccc(-c5cccnc5)n4)c3)cc(C(F)(F)F)c2)cn1 [Nilotinib]
effect on formation of PCSK9/LDLR complexes / PCA signal (in words) [1]: inhibit the formation of PCSK9/LDLR complexes | % Control (PCSK9/LDLr PCA) ([1]; dose 3 μM): 48% | % Control (PCSK9/LDLr PCA) ([1]; dose 10 μM): 65%

COc1cc2ncnc(Nc3cccc(Br)c3)c2cc1OC [PD-153035]
x-fold increase (LDL uptake in Hepg2 cells) ([2]; dose 0.2 μM): 1.3 x-fold | x-fold increase (hepatic LDL uptake) ([2]; dose 0.2 µM): 1.3 x-fold

CNc1cc2c(Nc3cccc(Br)c3)ncnc2cn1 [PD-158780]
x-fold increase (LDL uptake in Hepg2 cells) ([2]; dose 0.3 μM): 1.3 x-fold | x-fold increase (hepatic LDL uptake) ([2]; dose 0.3 µM): 1.3 x-fold

O=C1NC(=O)C(=Cc2ccc(-c3ccc(F)cc3O)o2)S1 [PI3K gamma/CKII inhibitor, (5-(4-Fluoro-2-hydroxyphenyl)furan-2-ylmethylene)thiazolidine-2,4-dione]
% Control (PCSK9/LDLr PCA) ([1]; dose 3 μM): 57% | % Control (PCSK9/LDLr PCA) ([1]; dose 10 μM): 47%

Oc1cccc(-c2nc(N3CCOCC3)c3sccc3n2)c1 [PI 3-K alpha Inhibitor IV, 3-(4-Morpholinothieno[3,2-d]pyrimidin-2-yl)phenol]
% Control (PCSK9/LDLr PCA) ([1]; dose 30 μM): 46%

O=C1C(SCCO)=C(SCCO)C(=O)N1c1ccc(-c2ccccc2)cc1 [PM20]
% Control (PCSK9/LDLr PCA) ([1]; dose 10 μM): 53%

COc1ccnc(C[S+]([O-])c2nc3ccc(OC(F)F)cc3[nH]2)c1OC (centres unmarked) [Pantoprazole]
% Control (PCSK9/LDLr PCA) ([1]; dose 200 μM): 36%

CC[C@H](CO)Nc1nc(NCc2ccccc2)c2ncn(C(C)C)c2n1 [Roscovitine]
% Control (PCSK9/LDLr PCA) ([1]; dose 40 μM): 54%

Oc1ccc(-c2nc(-c3ccc(F)cc3)c(-c3ccncc3)[nH]2)cc1 [SB 202190]
x-fold increase (LDL uptake in Hepg2 cells) ([2]; dose 1 μM): 2.7 x-fold | x-fold increase (hepatic LDL uptake) ([2]; dose 1 µM): 2.7 x-fold

C[S+]([O-])c1ccc(-c2nc(-c3ccc(F)cc3)c(-c3ccncc3)[nH]2)cc1 (centres unmarked) [SB 203580]
x-fold increase (LDL uptake in Hepg2 cells) ([2]; dose 3 μM): 3.0 x-fold | x-fold increase (hepatic LDL uptake) ([2]; dose 3 µM): 3.0 x-fold

O=C1NC(=O)C(c2ccccc2[N+](=O)[O-])=C1Nc1ccc(O)c(Cl)c1 [SB 415286]
x-fold increase (LDL uptake in Hepg2 cells) ([2]; dose 25 μM): 1.6 x-fold | x-fold increase (hepatic LDL uptake) ([2]; dose 25 µM): 1.6 x-fold

CN[C@H]1CC[C@@H](c2ccc(Cl)c(Cl)c2)c2ccccc21 [Sertraline]
% Control (PCSK9/LDLr PCA) ([1]; dose 100 μM): 46%

CN[C@@H]1C[C@H]2O[C@@](C)([C@@H]1OC)n1c3ccccc3c3c4c(c5c6ccccc6n2c5c31)C(=O)NC4 [Staurosporine]
% Control (PCSK9/LDLr PCA) ([1]; dose 1 μM): 34%

CC/C(=C(\c1ccccc1)c1ccc(OCCN(C)C)cc1)c1ccccc1 [Tamoxifen]
% Control (PCSK9/LDLr PCA) ([1]; dose 30 μM): 53%

CC(C)(C)c1ccc(C(O)CCCN2CCC(C(O)(c3ccccc3)c3ccccc3)CC2)cc1 (centres unmarked) [Terfenadine]
% Control (PCSK9/LDLr PCA) ([1]; dose 10 μM): 59%

B1: Oncostatin M (OSM): regulator of hepatic LDL uptake, purported target Gp130/OSMR/LIFR (protein, UniProt P13725 26-221, looked up)
Oncostatin-M: AAIGSCSKEYRVLLGQLQKQTDLMQDTSRLLDPYIRIQGLDVPKLREHCRERPGAFPSEETLRGLGRRGFLQTLNATLGCVLHRLADLEQRLPKAQDLERSGLNIEDLEKLQMARPNILGLRNNIYCMAQLLDNSDTAEPTKAGRGASQPPTPTPASDAFQRKLEGCRFLHGYHRFMHSVGRVFSKWGESPNRSRR
x-fold increase (hepatic LDL uptake) ([2]; dose 30 ng/ml): 4.2 x-fold
